Assay [1] has as its system A/Victoria/210/2009 (H3N2). The experiment in a line: ELISA of influenza-specific serum antibody titers in mice given adjuvanted A/Vic vaccine.
Another assay relates to human PBMCs. The experiment in a line: Human PBMC intracellular cytokine staining (flow cytometry). Format: cell-based. Particulars: for frequency of mDC producing IL-12p40 / frequency of classical monocytes producing IL-12p40: 1 h plus 5 h GolgiPlug. Here is the method:
Human blood was obtained from healthy adult donors through a University of Montana Institutional Review Board (IRB)-approved protocol. PBMCs were separated from whole blood via density gradient separation using Histopaque 1,077 (Sigma). For PBMC-based assays, cells were resuspended at the desired cell concentration in complete media (RPMI1640+10% FBS+antibiotics). Cells were treated with the indicated compound concentrations and stimulated for 6–24 h depending on the assay as indicated in the figure legends and assays outlined below.
For flow cytometry analysis of innate cytokines, PBMCs were stimulated with indicated concentration of compound for 1 h followed by 5 h incubation with GolgiPlug (BD, 1 μL/mL) at 37°C. Post-stimulation, cells were harvested and surface stained with viability dye, and monoclonal antibodies targeting CD3 AF700 (Tonbo Bioscience, UCHT1), CD19 AF700 (Tonbo Bioscience, HIB19), CD56 AF700 (Biolegend, 5.1H11), HLA-DR BV785 (Biolegend, L243), CD14 APC-Cy7 (Biolegend, 63D3), CD16 PE-Dazzle594 (Biolegend, 3G8), CD11c BV421 (Biolegend, 3.9), and CD123 APC (Biolegend, 6H6). Following fixation and permeabilization with BD Cytofix/Cytoperm buffers, cells were stained with monoclonal antibodies targeting the intracellular cytokines IL-12p40 PE (a shared IL-12 and IL-23 subunit, Biolegend, C11.5), IL-6 FITC (Biolegend MQ2-13A5), IL-4 BV605 (Biolegend, MP4-25D2), and LAP (TGF-β) PE Cy7 [latency-associated peptide ([55]), Biolegend TW4-2F8]. Data were collected using an LSRII flow cytometer (BD) and analyzed using FlowJo 10.0 software (TreeStar).
Figure 7 Lipidated imidazoquinolines elicit T cell polarizing cytokines primarily from APCs. PBMCs from 6 healthy, adult blood donors were stimulated with 2 μM indicated TLR7/8, TLR4, or combination TLR4 + TLR7/8 agonists. After 1 h, brefeldin A (GolgiPlug) was added and cells were incubated for a further 5 h. Cells were then harvested and stained with surface antibodies for phenotyping, fixed and permeablized and stained with antibodies to detect intracellular cytokines. (A) Frequency of IL-12/IL-23+ cells, (B) frequency of IL-6+ cells, (C) frequency of TGFβ (LAP)+ cells, and (D) frequency of IL-4+ cells.

The next assay has as its target T1, human TLR8 (Homo sapiens, UniProt Q9NR97).
T1 sequence (Q9NR97 27-1041): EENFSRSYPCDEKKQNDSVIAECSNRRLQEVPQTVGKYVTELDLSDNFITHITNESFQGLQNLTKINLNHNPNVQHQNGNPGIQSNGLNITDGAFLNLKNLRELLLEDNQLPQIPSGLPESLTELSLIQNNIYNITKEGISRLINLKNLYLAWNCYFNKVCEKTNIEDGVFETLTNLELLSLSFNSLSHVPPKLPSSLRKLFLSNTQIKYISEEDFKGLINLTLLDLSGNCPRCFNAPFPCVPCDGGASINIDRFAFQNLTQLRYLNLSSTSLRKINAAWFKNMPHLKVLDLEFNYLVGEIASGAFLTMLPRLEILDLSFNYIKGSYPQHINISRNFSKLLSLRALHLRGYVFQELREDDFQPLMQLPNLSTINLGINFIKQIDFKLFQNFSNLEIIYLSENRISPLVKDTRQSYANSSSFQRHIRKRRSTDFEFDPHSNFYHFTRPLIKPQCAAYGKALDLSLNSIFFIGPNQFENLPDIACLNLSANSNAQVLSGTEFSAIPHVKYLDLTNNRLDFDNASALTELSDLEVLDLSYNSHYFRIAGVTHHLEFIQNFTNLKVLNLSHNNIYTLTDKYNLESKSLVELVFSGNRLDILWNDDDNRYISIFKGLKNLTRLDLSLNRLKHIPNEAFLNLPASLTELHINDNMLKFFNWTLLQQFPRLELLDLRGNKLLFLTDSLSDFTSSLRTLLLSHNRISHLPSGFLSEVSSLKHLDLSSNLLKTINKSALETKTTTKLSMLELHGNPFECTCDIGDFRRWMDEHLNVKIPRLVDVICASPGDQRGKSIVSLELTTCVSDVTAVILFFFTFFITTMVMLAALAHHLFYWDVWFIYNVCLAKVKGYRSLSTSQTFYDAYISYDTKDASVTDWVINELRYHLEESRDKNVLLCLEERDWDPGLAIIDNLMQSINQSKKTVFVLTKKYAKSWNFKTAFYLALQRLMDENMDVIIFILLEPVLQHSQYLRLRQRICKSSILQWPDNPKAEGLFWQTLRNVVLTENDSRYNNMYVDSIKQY
The assay is described as follows: cell-based.

With `CCCCc1nc2c(N)nc3ccccc3c2n1CCO` [UM-3001], in assay [1] (14 days post-primary (14dp1)), the “average fold change of IgG2a vs IgG1 titers over A/Vic alone” value (shortened to “average fold change of IgG2a”) was “approximately equal increase in both IgG2a and IgG1 titers”. Further, the “frequency of mDC producing IL-12p40” value with human PBMCs (2 μM) is reported as “approximately 20%”. Further, the “frequency of mDC and classical monocytes expressing TGFβ (LAP)” value with human PBMCs (compound alone, 2 μM) is on record as “low frequencies”; in the assay on human PBMCs (in combination with CRX-601, 2 μM) it was “low frequencies”. The same compound returned an EC50 at human TLR8 of 0.53 µM.

As for `CCCCCCCCCCCCCCCC(=O)OC[C@H](COCCOCCOCCOP(=O)(O)OCCn1c(CCCC)nc2c(N)nc3ccccc3c21)OC(=O)CCCCCCCCCCCCCCC` [UM-3003], in assay [1] (mouse, in vivo), the “average fold change of IgG2a” value is “IgG2a titers were increased more than IgG1 titers”. For the same compound, in the assay on human PBMCs (2 μM), the “frequency of classical monocytes producing IL-12p40” value was “Lower frequencies” and the “frequency of mDC producing IL-12p40” value is recorded as “Lower frequencies”. The same compound had an EC50 at human TLR8 of 52.5 µM.

For the compound `CCCCCCCCCCCCCCCC(=O)OC[C@H](COCCOCCOCCOCCOCCOCCOP(=O)(O)OCCn1c(CCCC)nc2c(N)nc3ccccc3c21)OC(=O)CCCCCCCCCCCCCCC` [UM-3004], the “average fold change of IgG2a” value in assay [1] (14 days post-primary (14dp1)) is given as “IgG2a titers were increased more than IgG1 titers”. Besides, in the assay on human PBMCs (2 μM), the “frequency of classical monocytes producing IL-12p40” value was “Lower frequencies” and the “frequency of mDC producing IL-12p40” value is on record as “Lower frequencies”. On human TLR8, this compound returned an EC50 of 24.6 µM.

For the compound `CCCCCCCC/C=C\CCCCCCCC(=O)OC[C@H](COP(=O)(O)OCCc1ccc2c(c1)nc(N)c1nc(CCCC)n(CCO)c12)OC(=O)CCCCCCC/C=C\CCCCCCCC` [UM-3005], the “average fold change of IgG2a” value in assay [1] (mouse, in vivo) is “IgG2a titers were increased more than IgG1 titers”. For the same compound, in the assay on human PBMCs (2 μM), the “frequency of classical monocytes producing IL-12p40” value was “approximately 20%” and the “frequency of mDC producing IL-12p40” value is recorded as “approximately 20%”. For the same compound, the EC50 at human TLR8 is 0.27 µM.

(Values after paper PMC7075946 (Frontiers in Immunology, 2020).)
